{"source": "patent US6461619B1", "about": "(Somerset Pharmaceuticals, Inc., priority 1998, dated 2002)", "key": {"[1]": {"tested_on": "second-degree burn wounds", "assay": "second-degree burn wound model, epidermal migration (epithelization) assessment", "assay_type": "in vivo, Swine", "conditions": "for Percent of wounds completely epithelized / number of wounds healed (completely epithelized) over the number of wounds assessed: pig", "procedure": "The ability of selegiline and desmethylselegiline to assist in the healing of burns was tested using a second-degree burn wound model. In second-degree burns, the entire surface of the epidermis is destroyed. An epidermal covering is regenerated from the remaining epithelial and epidermal cells adjacent to the burns. This phase of the healing process is called epithelization.\nSwine were used for the experimental research animal because their skin has many morphological similarities to human skin. Seven young female specific pathogen free (SPF:Ken-O-Kaw Farms, Windsor, Ill.) pigs weighing 25-30 kg were kept in house for two weeks prior to initiating the experiment. These animals were fed a basal diet ad libitum and housed individually in facilities with controlled temperature (19-21° C.) and lights (12 h/12 h LD).\nExperimental animals were clipped with standard animal clippers on the day of the experiment. The skin on the back and both sides of the animal was prepared for wounding by washing with a non-antibiotic soap and sterile water. Each animal was anesthetized i.m. with ketamine-HCl (20 mg/kg), xylazine (2 mg/kg) and atropine (0.05 mg/kg), followed by mask inhalation of an isoflurane and oxygen combination. Five specifically designed cylindrical brass rods weighing 358 g each were heated in a boiling water bath to 100° C. A rod was removed from the water bath and wiped dry before being applied to the skin surface to prevent water droplets from creating a steam burn on the skin. The brass rod was held at a vertical position on the skin for six seconds with all pressure being supplied by gravity in order to make a burn 8.5 mm diameter×0.8 mm deep. Immediately after burning, the roof of the burn blister was removed with a sterile spatula. The burn wounds were made approximately 2 cm from each other.\nApproximately 90 burn wounds were made on the anterior two-thirds of the animal. The posterior third of the animal cannot be used because of anatomical differences in burn wound healing (a more rapid healing of burns has been observed at that position).\nA total of seven animals were used and a total of fifteen wounds per treatment group were analyzed on each of days 7-12 after wounding. Treatments were coded to maintain blind study compliance. The burn wounds were treated with 25 ug of test article (enough to cover each wound). Treatments were allowed to penetrate into the sites for at least a 20 minute time period. Each treatment was applied within 20 minutes of blister removal and treatment occurred once a day for the first five days.\nBeginning on day seven after wounding (day 0) and each day thereafter for four to six days, five burn wounds and the surrounding normal skin from each treatment area were excised using an electrokeratome. Any specimens that were not excised intact were discarded. The excised wounds and the surrounding normal skin were incubated in 0.5 M NaBr for 24 hours at 37° C. After incubation, the specimens were separated into epidermal and dermal sheets. The epidermis was examined macroscopically for defects in the area of the burn wounds. Epithelization was considered complete if no defect was present (healed). […] The epidermal sheet was placed on cardboard for a permanent record.\nThe number of wounds healed (completely epithelized) were divided by the total number of wounds sampled per day and multiplied by 100."}, "[2]": {"molecular_target": "T1, MAO-A (Homo sapiens, UniProt P21397)", "T1 sequence (P21397 1-527)": "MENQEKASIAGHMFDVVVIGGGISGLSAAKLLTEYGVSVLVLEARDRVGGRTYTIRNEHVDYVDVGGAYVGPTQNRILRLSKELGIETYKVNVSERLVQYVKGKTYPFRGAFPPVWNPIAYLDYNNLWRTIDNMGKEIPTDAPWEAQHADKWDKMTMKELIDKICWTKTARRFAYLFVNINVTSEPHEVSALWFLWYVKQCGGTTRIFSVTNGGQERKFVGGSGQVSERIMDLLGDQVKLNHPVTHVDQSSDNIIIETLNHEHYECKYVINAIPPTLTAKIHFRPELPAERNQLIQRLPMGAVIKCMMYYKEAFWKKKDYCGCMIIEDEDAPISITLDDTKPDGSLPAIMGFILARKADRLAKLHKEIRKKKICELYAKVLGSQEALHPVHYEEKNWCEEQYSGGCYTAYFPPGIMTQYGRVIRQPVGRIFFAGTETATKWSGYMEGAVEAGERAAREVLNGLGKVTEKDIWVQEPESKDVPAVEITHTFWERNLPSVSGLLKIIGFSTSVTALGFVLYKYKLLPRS", "conditions": "in comparison to selegiline, background statement; cited from earlier work"}, "[3]": {"molecular_target": "T2, monoamine oxidase B (Homo sapiens, UniProt P27338)", "T2 sequence (P27338 1-520)": "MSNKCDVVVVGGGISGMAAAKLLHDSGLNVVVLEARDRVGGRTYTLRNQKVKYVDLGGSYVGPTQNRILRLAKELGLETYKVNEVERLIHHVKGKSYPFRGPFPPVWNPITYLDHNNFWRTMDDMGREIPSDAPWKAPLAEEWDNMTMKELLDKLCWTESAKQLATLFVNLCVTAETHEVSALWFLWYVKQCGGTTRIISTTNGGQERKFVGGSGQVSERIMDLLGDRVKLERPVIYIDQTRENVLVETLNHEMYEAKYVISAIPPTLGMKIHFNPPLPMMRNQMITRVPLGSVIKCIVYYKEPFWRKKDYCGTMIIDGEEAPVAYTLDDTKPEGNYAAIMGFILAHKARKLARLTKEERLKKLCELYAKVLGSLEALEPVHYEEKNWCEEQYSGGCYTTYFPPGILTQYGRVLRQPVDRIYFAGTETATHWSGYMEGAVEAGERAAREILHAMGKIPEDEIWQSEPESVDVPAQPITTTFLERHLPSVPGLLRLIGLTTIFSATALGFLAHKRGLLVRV", "conditions": "background statement; cited from earlier work"}, "[4]": {"conditions": "10^-4M topical, day 7 after burning"}, "[5]": {"conditions": "10^-4M topical, day 8 after burning"}, "[6]": {"conditions": "10^-4M topical, day 9 after burning"}, "[7]": {"conditions": "10^-4M topical, day 10 after burning"}, "[8]": {"conditions": "10^-4M topical, day 11 after burning"}, "[9]": {"conditions": "10^-4M topical, day 12 after burning"}, "[10]": {"conditions": "10^-4M topical, day 13 after burning"}, "[11]": {"conditions": "10^-6M topical, day 7 after burning"}, "[12]": {"conditions": "10^-6M topical, day 8 after burning"}, "[13]": {"conditions": "10^-6M topical, day 9 after burning"}, "[14]": {"conditions": "10^-6M topical, day 10 after burning"}, "[15]": {"conditions": "10^-8M topical, day 7 after burning"}, "[16]": {"conditions": "10^-8M topical, day 8 after burning"}, "[17]": {"conditions": "10^-8M topical, day 9 after burning"}, "[18]": {"conditions": "10^-8M topical, day 10 after burning"}, "[19]": {"conditions": "10^-8M topical, day 11 after burning"}, "[20]": {"conditions": "10^-8M topical, day 12 after burning"}, "[21]": {"conditions": "10^-8M topical, day 13 after burning"}}, "note": "Structures can show the parent of a compound that is named as a salt.", "data": [{"smiles": "C#CCNC(C)Cc1ccccc1", "note": "(centres unmarked) [desmethylselegiline HCl, desmethylselegiline]", "values": [{"measurement": "Percent of wounds completely epithelized", "setting": "[1]; [4]", "value": "(0%)"}, {"measurement": "number of wounds healed (completely epithelized) over the number of wounds assessed", "setting": "[1]; [4]", "value": " 0/15"}, {"measurement": "Percent of wounds completely epithelized", "setting": "[1]; [5]", "value": "(0%)"}, {"measurement": "number of wounds healed (completely epithelized) over the number of wounds assessed", "setting": "[1]; [5]", "value": " 0/15"}, {"measurement": "Percent of wounds completely epithelized", "setting": "[1]; [6]", "value": "(0%)"}, {"measurement": "number of wounds healed (completely epithelized) over the number of wounds assessed", "setting": "[1]; [6]", "value": " 0/15"}, {"measurement": "Percent of wounds completely epithelized", "setting": "[1]; [7]", "value": "(0%)"}, {"measurement": "number of wounds healed (completely epithelized) over the number of wounds assessed", "setting": "[1]; [7]", "value": " 0/15"}, {"measurement": "Percent of wounds completely epithelized", "setting": "[1]; [8]", "value": 7, "unit": "%"}, {"measurement": "number of wounds healed (completely epithelized) over the number of wounds assessed", "setting": "[1]; [8]", "value": " 1/15"}, {"measurement": "Percent of wounds completely epithelized", "setting": "[1]; 10^-4M topical, day 11 after burning, listed as B-1", "value": "(7%)"}, {"measurement": "Percent of wounds completely epithelized", "setting": "[1]; [9]", "value": 33, "unit": "%"}, {"measurement": "number of wounds healed (completely epithelized) over the number of wounds assessed", "setting": "[1]; [9]", "value": " 5/15"}, {"measurement": "Percent of wounds completely epithelized", "setting": "[1]; 10^-4M topical, day 12 after burning, listed as B-1", "value": "(33%)"}, {"measurement": "Percent of wounds completely epithelized", "setting": "[1]; [10]", "value": 69, "unit": "%"}, {"measurement": "number of wounds healed (completely epithelized) over the number of wounds assessed", "setting": "[1]; [10]", "value": "{fraction (11/16 )}"}, {"measurement": "Percent of wounds completely epithelized", "setting": "[1]; 10^-4M topical, day 13 after burning, listed as B-1", "value": "(69%)"}, {"measurement": "time to complete epithelization compared with other treatment groups", "setting": "[1]; 10^-6 M", "value": "completely epithelized sooner than all other treatment groups"}, {"measurement": "Percent of wounds completely epithelized", "setting": "[1]; [11]", "value": "(0%)"}, {"measurement": "number of wounds healed (completely epithelized) over the number of wounds assessed", "setting": "[1]; [11]", "value": " 0/15"}, {"measurement": "Percent of wounds completely epithelized", "setting": "[1]; [12]", "value": "(0%)"}, {"measurement": "number of wounds healed (completely epithelized) over the number of wounds assessed", "setting": "[1]; [12]", "value": " 0/15"}, {"measurement": "Percent of wounds completely epithelized", "setting": "[1]; [13]", "value": "(0%)"}, {"measurement": "number of wounds healed (completely epithelized) over the number of wounds assessed", "setting": "[1]; [13]", "value": " 0/15"}, {"measurement": "Percent of wounds completely epithelized", "setting": "[1]; [14]", "value": "(0%)"}, {"measurement": "number of wounds healed (completely epithelized) over the number of wounds assessed", "setting": "[1]; [14]", "value": " 0/15"}, {"measurement": "number of wounds healed (completely epithelized) over the number of wounds assessed", "setting": "[1]; 10^-6M topical, day 11 after burning", "value": " 5/15"}, {"measurement": "number of wounds healed (completely epithelized) over the number of wounds assessed", "setting": "[1]; 10^-6M topical, day 12 after burning", "value": " 7/15"}, {"measurement": "number of wounds healed (completely epithelized) over the number of wounds assessed", "setting": "[1]; 10^-6M topical, day 13 after burning", "value": " 6/16"}, {"measurement": "Percent of wounds completely epithelized", "setting": "[1]; [15]", "value": "(0%)"}, {"measurement": "number of wounds healed (completely epithelized) over the number of wounds assessed", "setting": "[1]; [15]", "value": " 0/15"}, {"measurement": "Percent of wounds completely epithelized", "setting": "[1]; [16]", "value": "(0%)"}, {"measurement": "number of wounds healed (completely epithelized) over the number of wounds assessed", "setting": "[1]; [16]", "value": " 0/15"}, {"measurement": "Percent of wounds completely epithelized", "setting": "[1]; [17]", "value": "(0%)"}, {"measurement": "number of wounds healed (completely epithelized) over the number of wounds assessed", "setting": "[1]; [17]", "value": " 0/15"}, {"measurement": "Percent of wounds completely epithelized", "setting": "[1]; [18]", "value": "(0%)"}, {"measurement": "number of wounds healed (completely epithelized) over the number of wounds assessed", "setting": "[1]; [18]", "value": " 0/15"}, {"measurement": "Percent of wounds completely epithelized", "setting": "[1]; [19]", "value": 33, "unit": "%"}, {"measurement": "number of wounds healed (completely epithelized) over the number of wounds assessed", "setting": "[1]; [19]", "value": " 5/15"}, {"measurement": "Percent of wounds completely epithelized", "setting": "[1]; 10^-8M topical, day 11 after burning, listed as B-3", "value": "(33%)"}, {"measurement": "Percent of wounds completely epithelized", "setting": "[1]; [20]", "value": 67, "unit": "%"}, {"measurement": "number of wounds healed (completely epithelized) over the number of wounds assessed", "setting": "[1]; [20]", "value": "{fraction (10/15 )}"}, {"measurement": "Percent of wounds completely epithelized", "setting": "[1]; 10^-8M topical, day 12 after burning, listed as B-3", "value": "(67%)"}, {"measurement": "Percent of wounds completely epithelized", "setting": "[1]; [21]", "value": 67, "unit": "%"}, {"measurement": "number of wounds healed (completely epithelized) over the number of wounds assessed", "setting": "[1]; [21]", "value": "{fraction (40/15 )}"}, {"measurement": "Percent of wounds completely epithelized", "setting": "[1]; 10^-8M topical, day 13 after burning, listed as B-3", "value": "(67%)"}, {"measurement": "percentage of wounds completely epithelized compared with other groups", "setting": "[1]; day thirteen, all concentrations", "value": "higher percentage of wounds completely epithelized on day thirteen"}, {"measurement": "wound crust colour during absorption of applied agent", "setting": "[1]; first three days of treatment, normal again after 15 minutes", "value": "more pronounced"}, {"measurement": "inhibition of MAO-A", "setting": "[2]", "value": "decreased to an even greater extent"}, {"measurement": "MAO-B inhibitory activity", "setting": "[3]", "value": "reduced MAO-B inhibitory activity in comparison to selegiline"}]}]}
